# US11278526B2, “Compounds and methods for treating lupus” (RECEPTOS LLC, priority 2016, dated 2022)
# Read-outs that look alike come from different tables or passages of the source.
# Columns and labels:
# [1] = NZBWF1 mice, cyclophosphamide IP once a week
# Procedure: Compound 148 was tested for efficacy in an art-accepted mouse model for SLE: NZB×NZW F1 (“NZBWF1”) mice develop an autoimmune disease closely resembling SLE. These mice spontaneously produce high levels of anti-dsDNA antibodies, an indicator of SLE, starting after 20 weeks of age. These mice develop hemolytic anemia, proteinuria, and progressive glomerulonephritis mediated by immune complex deposition in the glomerular basement membrane.
# Six groups of NZBWF1 mice (Jackson Laboratories, stock #100008) were used in the study and were acclimated to the research facility for 7 weeks prior to the start of the study. Weekly measurements of proteinuria (excess serum proteins present in the urine) and body weight began at 20 weeks of age. At 23 weeks of age, the mice were assigned to groups in a balanced manner in order to achieve average body weight and average proteinuria measurements across the groups. […]
# The three groups dosed with compound 148 received 0.3, 1.0, and 3.0 mg/kg PO QD, respectively (20 mice per dosage). […] Disease development was evaluated as disclosed in the following examples. […]
# The three groups dosed with compound 5 received 0.3, 1.0, and 3.0 mg/kg PO QD, respectively (20 mice per dosage). […] Disease development was evaluated as disclosed in the following examples.
# NZBWF1 mice [2] = assay: Survival in NZBWF1 SLE mouse model; type: in vivo; details: cyclophosphamide 50 mg/kg IP once a week (compound 5 study), Logrank p=0.0017
# Procedure: As in Example 2, compound 5 was tested for efficacy in the same NZB×NZW F1 (“NZBWF1”) mouse model for SLE as compound 148. Six groups of NZBWF1 mice (Jackson Laboratories, stock #100008) were used in the study and were acclimated to the research facility for 6 weeks prior to the start of the study. Weekly measurements of proteinuria (excess serum proteins present in the urine) and body weight began at 20 weeks of age. At 22 weeks of age, the mice were assigned to groups in a balanced manner in order to achieve average body weight and average proteinuria measurements across the groups. One “naive” group consisting of 10 mice was euthanized at the start of treatment and used as a source of tissue for analysis. Treatment began at 22 weeks of age.
# The five treatment groups were administered cyclophosphamide (positive control, 20 mice; introduced gradually to reduce toxicity (IP, once a week, 10 mg/kg at Weeks 22 and 23 and 50 mg/kg from Week 24 to the end of the study)), vehicle (negative control, 20 mice), or compound 5 (three groups of 20 mice), beginning at 22 weeks of age and observed over the course of 20 weeks. The three groups dosed with compound 5 received 0.3, 1.0, and 3.0 mg/kg PO QD, respectively (20 mice per dosage). Surviving animals were sacrificed at 42 weeks. […] Disease development was evaluated as disclosed in the following examples.
# NZBWF1 mice [3] = assay: Proteinuria scores (urine dip sticks) in NZBWF1 SLE mouse model; type: in vivo
# Source text: Six groups of NZBWF1 mice (Jackson Laboratories, stock #100008) were used in the study and were acclimated to the research facility for 7 weeks prior to the start of the study. Weekly measurements of proteinuria (excess serum proteins present in the urine) and body weight began at 20 weeks of age. At 23 weeks of age, the mice were assigned to groups in a balanced manner in order to achieve average body weight and average proteinuria measurements across the groups. One “naive” group consisting of 10 mice was euthanized at the start of treatment and used as a source of tissue for analysis. Treatment began at 23 weeks of age.
# The three groups dosed with compound 148 received 0.3, 1.0, and 3.0 mg/kg PO QD, respectively (20 mice per dosage). Surviving animals were sacrificed at 42 weeks. […] Disease development was evaluated as disclosed in the following examples.
# High levels of proteinuria are a strong indicator of SLE. […] Proteinuria was expressed as a score from 0 to 4 (0=no protein; 1=traces of protein (<30 mg/dL); 2=30-100 mg/dL; 3=100-500 mg/dL; 4=>500 mg/dL).
# As in Example 3, proteinuria was measured weekly beginning at 20 weeks using urine dip sticks (Roche Diagnostics Chemstrip 2GP, cat. no. 11895397160, per manufacturer's protocol). Proteinuria was expressed as a score from 0 to 4 (0=no protein; 1=traces of protein (<30 mg/dL); 2=30-100 mg/dL; 3=100-500 mg/dL; 4=>500 mg/dL). […] (In this and the following experiments, the number of mice per group was approximately 20, and statistics were determined by one-way ANOVA with Dunnett's comparison.)
# NZBWF1 mice [4] = assay: Serum blood urea nitrogen (BUN) at termination; type: in vivo
# Procedure: Lymphocyte counts were measured from whole blood taken at 23, 31, and 36.5 weeks using flow cytometry. Cells were gated for CD4+ T cells, CD8+ T cells, and CD19+ B cells. […] Serum blood urea nitrogen (BUN) was also measured at termination to assess kidney function.
# As in Example 4, serum blood urea nitrogen (BUN) was measured at termination to assess kidney function.
# NZBWF1 mice [5] = assay: Kidney weight at termination (42 weeks); type: in vivo
# Source text: In SLE, inflammatory infiltrates known as Tertiary Lymphatic Tissue (TLT) accumulate in the kidney and spleen, among other tissues. As an indirect measure of disease progression, right and left kidneys were weighed (FIGS. 4A-4B) following termination at 42 weeks.
# As in Example 5, left kidneys were weighed (FIG. 43) following termination at 42 weeks.
# splenocytes = assay: Splenocyte counts and immunophenotyping of spleen cell subtypes; type: in vivo, mice; details: mouse, in vivo
# Procedure: To determine the effects of compound 148 on inflammatory infiltrate in the spleen, spleens were weighed at 42 weeks. […] Splenocyte suspensions were then prepared. RBCs were lysed and splenocytes were counted.
# Plasmacytoid dendritic cells (pDC) express IFNAR1 (Interferon alpha receptor 1), which amplifies the proinflammatory response to type 1 interferons (e.g., IFNα) that are associated with lupus. IFNAR activity is considered to be an important modulator of signal strength and duration in pDC and subsequent activation of T and B cells in the inflammatory response. pDC counts were measured at termination.
# To determine the effects of compound 5 on inflammatory infiltrate in the spleen, spleens were weighed at 42 weeks. […] Splenocyte suspensions were prepared for all three doses. RBCs were lysed and splenocytes were counted.
# [6] = cyclophosphamide 50 mg/kg IP once a week (compound 5 study)
# [7] = cyclophosphamide 50 mg/kg IP once a week (compound 148 study), p<0.05
compound,measurement,setting,value
"O=P1(N(CCCl)CCCl)NCCCO1 (stereo not shown) [cyclophosphamide, reference compound]",Body weight,[1]; 50 mg/kg from week 24 (compound 5 study),increased body weights
same,Body weight,[1]; 50 mg/kg from week 25 (compound 148 study),increased body weights
same,Survival compared to vehicle,NZBWF1 mice [2],improved survival compared to vehicle treated animals
same,Proteinuria scores relative to vehicle,NZBWF1 mice [3]; [6],significant improvement relative to vehicle
same,Proteinuria scores relative to vehicle,NZBWF1 mice [3]; [7],significant improvement relative to vehicle
same,Serum BUN at termination vs vehicle,NZBWF1 mice [4]; [6],significant reduction in serum BUN
same,Serum BUN at termination vs vehicle,NZBWF1 mice [4]; [7],significant reduction in serum BUN
same,Left kidney weight relative to vehicle,NZBWF1 mice [5]; [6],significantly reduced kidney weight relative to vehicle
same,Kidney weight relative to vehicle,NZBWF1 mice [5]; [7],significantly reduced kidney weight relative to vehicle
same,Decrease of splenic pDC counts relative to vehicle,splenocytes,47%
same,Percent Reduction vs Vehicle: Activated CD4 + T cells,splenocytes,89%
same,Percent Reduction vs Vehicle: CD4 + T cells,splenocytes,77%
same,Percent Reduction vs Vehicle: CD8 + T cells,splenocytes,48%
same,Percent Reduction vs Vehicle: CD11b + Ly6C^hi monocytes,splenocytes,25%
same,Percent Reduction vs Vehicle: CD19 + B cells,splenocytes,91%
same,Percent Reduction vs Vehicle: Follicular B cells,splenocytes,93%
same,Percent Reduction vs Vehicle: Germinal Center B cells,splenocytes,99%
same,Percent Reduction vs Vehicle: Marginal Zone B cells,splenocytes,57%
same,Percent Reduction vs Vehicle: Marginal Zone Progenitor B cells,splenocytes,78%
same,Percent Reduction vs Vehicle: Naive CD4 + T cells,splenocytes,45%
same,Percent Reduction vs Vehicle: Plasma cells,splenocytes,90%
same,Percent Reduction vs Vehicle: Tfh cells,splenocytes,97%
same,Percent Reduction vs Vehicle: Total splenocytes,splenocytes,73%
same,Percent Reduction vs Vehicle: Treg cells,splenocytes,80%
same,Percent Reduction vs Vehicle: pDC,splenocytes,64%
same,Reduction in splenic CD4+ T cell population,splenocytes,84%
same,Reduction in splenic CD8+ T cell population,splenocytes,46%
same,Reduction in splenic CD19+ B cell population,splenocytes,92%
same,Reduction in splenic Follicular (FO) B cells,splenocytes,96%
same,Reduction in splenic Germinal Center (GC) B cell population,splenocytes,99%
same,Reduction in splenic Marginal Zone (MZ) B cell population,splenocytes,74%
same,Reduction in splenic activated CD4+ T cell population,splenocytes,93%
same,Reduction in splenic naïve CD4+ T cells,splenocytes,47%
same,Reduction in splenic plasma cell population,splenocytes,18%
